Results taken from paper doi:10.1101/2020.10.13.334797v1 (biorxiv, 2020).

Assays:
Assay type in all cases: cell-based
[1] = molecular target: hTRPV4 (full-length; hTRPV4WT) (Homo sapiens, UniProt Q9HBA0, L584M); assay: calcium flux
[2] = molecular target: hTRPV4 (full-length; hTRPV4WT) (Homo sapiens, UniProt Q9HBA0, N474A); assay: calcium flux
[3] = molecular target: hTRPV4 (full-length; hTRPV4WT) (Homo sapiens, UniProt Q9HBA0, R594A); assay: calcium flux
[4] = molecular target: hTRPV4 (full-length; hTRPV4WT) (Homo sapiens, UniProt Q9HBA0, Y556A); assay: calcium flux
Chain of hTRPV4 (full-length; hTRPV4WT) (Homo sapiens, UniProt Q9HBA0, Y556A) (Q9HBA0 whole entry Y556A): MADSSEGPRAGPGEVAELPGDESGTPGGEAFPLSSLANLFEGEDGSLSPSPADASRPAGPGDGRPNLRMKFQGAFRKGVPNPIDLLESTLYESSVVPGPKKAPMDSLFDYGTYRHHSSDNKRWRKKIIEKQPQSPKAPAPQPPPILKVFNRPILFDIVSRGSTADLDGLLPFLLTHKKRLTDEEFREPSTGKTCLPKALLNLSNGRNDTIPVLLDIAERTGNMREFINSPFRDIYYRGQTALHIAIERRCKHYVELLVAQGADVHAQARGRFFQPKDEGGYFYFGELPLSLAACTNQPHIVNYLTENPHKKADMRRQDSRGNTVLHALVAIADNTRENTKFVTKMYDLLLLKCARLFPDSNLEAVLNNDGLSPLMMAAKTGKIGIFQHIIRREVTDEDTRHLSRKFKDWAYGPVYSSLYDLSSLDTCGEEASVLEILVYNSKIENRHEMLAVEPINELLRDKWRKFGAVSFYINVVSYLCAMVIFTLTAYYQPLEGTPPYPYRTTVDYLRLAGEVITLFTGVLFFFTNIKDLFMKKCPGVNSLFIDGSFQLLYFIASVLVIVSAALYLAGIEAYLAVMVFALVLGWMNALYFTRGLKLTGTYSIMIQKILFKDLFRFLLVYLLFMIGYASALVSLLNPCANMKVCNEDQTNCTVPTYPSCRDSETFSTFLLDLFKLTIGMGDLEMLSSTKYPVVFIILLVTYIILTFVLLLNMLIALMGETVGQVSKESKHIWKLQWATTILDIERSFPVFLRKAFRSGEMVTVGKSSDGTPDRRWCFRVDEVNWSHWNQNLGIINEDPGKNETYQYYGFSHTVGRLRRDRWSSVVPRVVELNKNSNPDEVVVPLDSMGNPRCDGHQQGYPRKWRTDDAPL

[5] = molecular target: hTRPV4 (full-length; hTRPV4WT) (Homo sapiens, UniProt Q9HBA0); assay: calcium flux
Chain of hTRPV4 (full-length; hTRPV4WT) (Homo sapiens, UniProt Q9HBA0) (Q9HBA0 whole entry): as the sequence (Q9HBA0 whole entry Y556A) above, with A556Y counted along it

[6] = molecular target: hTRPV4 (full-length; hTRPV4WT) (Homo sapiens, UniProt Q9HBA0, N474Q); assay: calcium flux
Chain of hTRPV4 (full-length; hTRPV4WT) (Homo sapiens, UniProt Q9HBA0, N474Q) (Q9HBA0 whole entry N474Q): as the sequence (Q9HBA0 whole entry Y556A) above, with N474Q, A556Y counted along it

[7] = molecular target: hTRPV4 (full-length; hTRPV4WT) (Homo sapiens, UniProt Q9HBA0, K535A); assay: calcium flux
Chain of hTRPV4 (full-length; hTRPV4WT) (Homo sapiens, UniProt Q9HBA0, K535A) (Q9HBA0 whole entry K535A): as the sequence (Q9HBA0 whole entry Y556A) above, with K535A, A556Y counted along it

[8] = molecular target: hTRPV4 (full-length; hTRPV4WT) (Homo sapiens, UniProt Q9HBA0, S548V); assay: calcium flux
Chain of hTRPV4 (full-length; hTRPV4WT) (Homo sapiens, UniProt Q9HBA0, S548V) (Q9HBA0 whole entry S548V): as the sequence (Q9HBA0 whole entry Y556A) above, with S548V, A556Y counted along it

[9] = molecular target: hTRPV4 (full-length; hTRPV4WT) (Homo sapiens, UniProt Q9HBA0, F549A); assay: calcium flux
Chain of hTRPV4 (full-length; hTRPV4WT) (Homo sapiens, UniProt Q9HBA0, F549A) (Q9HBA0 whole entry F549A): as the sequence (Q9HBA0 whole entry Y556A) above, with F549A, A556Y counted along it

[10] = molecular target: hTRPV4 (full-length; hTRPV4WT) (Homo sapiens, UniProt Q9HBA0, Q550A); assay: calcium flux
Chain of hTRPV4 (full-length; hTRPV4WT) (Homo sapiens, UniProt Q9HBA0, Q550A) (Q9HBA0 whole entry Q550A, the tested form may be a part): as the sequence (Q9HBA0 whole entry Y556A) above, with Q550A, A556Y counted along it

[11] = molecular target: truncated hTRPV4 (cryo-EM construct, residues 148-787 N651D) (Homo sapiens, UniProt Q9HBA0, N651D); assay: two-electrode voltage clamp, Xenopus oocytes
Chain of truncated hTRPV4 (cryo-EM construct, residues 148-787 N651D) (Q9HBA0 148-787 N651D): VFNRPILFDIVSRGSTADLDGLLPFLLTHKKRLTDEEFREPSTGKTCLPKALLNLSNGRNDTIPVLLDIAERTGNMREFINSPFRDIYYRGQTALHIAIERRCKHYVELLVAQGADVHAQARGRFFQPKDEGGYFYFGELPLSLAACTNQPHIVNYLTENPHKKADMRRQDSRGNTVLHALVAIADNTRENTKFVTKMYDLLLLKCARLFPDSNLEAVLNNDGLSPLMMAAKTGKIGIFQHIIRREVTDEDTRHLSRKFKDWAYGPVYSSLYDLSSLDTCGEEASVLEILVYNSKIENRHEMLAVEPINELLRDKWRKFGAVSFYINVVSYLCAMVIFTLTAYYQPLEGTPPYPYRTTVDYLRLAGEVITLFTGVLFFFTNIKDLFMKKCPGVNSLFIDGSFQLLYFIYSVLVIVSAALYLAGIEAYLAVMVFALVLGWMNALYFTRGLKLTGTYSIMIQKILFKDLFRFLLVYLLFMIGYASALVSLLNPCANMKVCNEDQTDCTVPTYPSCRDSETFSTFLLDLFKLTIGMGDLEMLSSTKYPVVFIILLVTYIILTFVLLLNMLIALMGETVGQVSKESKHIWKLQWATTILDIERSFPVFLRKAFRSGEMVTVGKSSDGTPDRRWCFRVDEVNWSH

Chain of hTRPV4 (full-length; hTRPV4WT) (Homo sapiens, UniProt Q9HBA0, R594A) (Q9HBA0 whole entry R594A): as the sequence (Q9HBA0 whole entry Y556A) above, with A556Y, R594A counted along it
Chain of hTRPV4 (full-length; hTRPV4WT) (Homo sapiens, UniProt Q9HBA0, L584M) (Q9HBA0 whole entry L584M): as the sequence (Q9HBA0 whole entry Y556A) above, with A556Y, L584M counted along it
Chain of hTRPV4 (full-length; hTRPV4WT) (Homo sapiens, UniProt Q9HBA0, N474A) (Q9HBA0 whole entry N474A): as the sequence (Q9HBA0 whole entry Y556A) above, with N474A, A556Y counted along it

In the case of `CC(C)C[C@H](NC(=O)c1cc2ccccc2s1)C(=O)N1CCN(C(=O)[C@H](CO)NS(=O)(=O)c2ccc(Cl)cc2Cl)CC1` [GSK1016790A], the EC50 [1] is reported as 4 ± 1.7 nM, the EC50 [2] is reported as 540 ± 150 nM and the EC50 [3] is reported as > 25000 nM. For the same compound, the EC50 [4] was 9.6 ± 4.3 nM, the EC50 [5] was 1.21 ± 0.033 nM and the EC50 [6] was > 25000 nM. It also gave an EC50 [7] of 7.4 ± 2.9 nM, an EC50 [8] of 110 ± 18 nM and an EC50 [9] of 9.8 ± 4.1 nM. It also gave an EC50 [10] of 27 ± 13 nM and an EC50 [11] of 8430 nM.
